Test results reported in patent publication US8735622B2, “Histone demethylase inhibitors and methods for using the same” (The Regents of the University of Colorado, a body corporate, priority 2011, dated 2014).
“And” between values parts separate entries of the source, which are not always exact repeats. Equal values may be shown once.

How the values were obtained:
[1] = molecular target: T1, human GASC1 (GST-GASC1(1-420)) (Homo sapiens, UniProt Q9H3R0); experiment: GASC1 enzyme activity assay (DELFIA); type: biochemical; conditions: DELFIA, H3K9me3 peptide substrate
T1 construct: corresponding to amino acid 1-420 was cloned and purified; made in house; host or cells: Escherichia coli BL-21
T1 sequence (Q9H3R0 1-420): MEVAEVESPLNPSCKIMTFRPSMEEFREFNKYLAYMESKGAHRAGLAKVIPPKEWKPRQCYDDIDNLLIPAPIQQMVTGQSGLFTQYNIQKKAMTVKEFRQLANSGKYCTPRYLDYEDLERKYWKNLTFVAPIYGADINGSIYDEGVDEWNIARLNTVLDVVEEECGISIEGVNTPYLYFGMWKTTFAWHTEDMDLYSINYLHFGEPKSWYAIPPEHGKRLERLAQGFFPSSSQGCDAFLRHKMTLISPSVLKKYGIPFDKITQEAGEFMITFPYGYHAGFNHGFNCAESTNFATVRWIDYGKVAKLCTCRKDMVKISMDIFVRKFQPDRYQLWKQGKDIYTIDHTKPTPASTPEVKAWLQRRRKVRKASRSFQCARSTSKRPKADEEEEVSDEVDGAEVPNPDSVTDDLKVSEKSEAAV
Protocol: (§1) In order to evaluate the inhibitory activity of 1 in vitro, a GST-fusion protein of the catalytic N-terminus of human GASC1 (gene amplified in squamous cell carcinoma 1) corresponding to amino acid 1-420 was cloned and purified. […] To evaluate the enzyme specificity of 1, the activity of 1 was examined against several other related enzymes in vitro.
(§2) The enzyme activity assays for GASC1 and JMJD2A were established on the DELFIA platform. DELFIA assays were performed in white, opaque 384-well plates coated with Streptavidin (Perkin Elmer). GST-GASC1(1-420) was diluted to 200 ng/well in 20 mM Tris HCl pH 8.5/2 mM glutathione and added in a volume of 20 μL. Blank wells received Tris/glutathione buffer only. Test compounds were diluted in DMSO and […] was pinned into the wells. Blank and control wells received only compound buffer. The reactions were initiated by the addition of 500 nM biotin-H3(1-20)K9me3 substrate, 10 μM FeSO4, 100 μM alpha-ketoglutarate in a volume of 20 μL, and incubated at room temperature for 60 minutes. The plates were washed 3 times with 100 μL of Wash Buffer (50 mM Tris pH 7.4, 150 mM NaCl, 0.05% Tween 20, 0.2% BSA). […] Time resolved fluorescence was measured after 45 minutes on an Envision Microplate Imager (Perkin Elmer Life Sciences) with 400 μs delay, excitation at 360 nm, and emission at 620 nm.

GST-fused GASC1(1-420) = molecular target: T2, GST-fused GASC1(1-420) (Homo sapiens, UniProt Q9H3R0); experiment: GASC1 enzyme inhibition assay with MS detection; type: biochemical; conditions: 1 μM and 5 μM, 2 hours
T2 construct: corresponding to amino acid 1-420 was cloned and purified; made in house; host or cells: Escherichia coli BL-21
T2 sequence (Q9H3R0 1-420): T1 sequence (Q9H3R0 1-420)
Protocol: Synthetic histone peptides H3K9me3 were incubated with purified GST-tagged GASC1(1-420) in demethylation buffer (50 mM Tris pH 8.0, 2 mM ZnCl2, 1 mM alpha-ketoglutarate, 50 μM FeSO4, 1 mM ascorbic acid) at 37° C. In a typical reaction, 2 μg of modified histone peptides were incubated with 20 μg GST-GASC1(1-420) in a total volume of 40 μL, for 2 hours. Reaction mixtures were concentrated and re-dissolved in 50% methanol in water with 0.1% formic acid followed by ESI-TOF analysis using ABI Q-Star Pulsar.

JMJD2A = molecular target: T3, JMJD2A (Homo sapiens, UniProt O75164); experiment: JMJD2A enzyme activity assay (DELFIA); type: biochemical; conditions: DELFIA
T3 construct: Recombinant protein preparation of GASC1(1-420), JMJD2A (1-420) and LSD1 (full-length); made in house; host or cells: Escherichia coli BL-21
T3 sequence (O75164 1-420): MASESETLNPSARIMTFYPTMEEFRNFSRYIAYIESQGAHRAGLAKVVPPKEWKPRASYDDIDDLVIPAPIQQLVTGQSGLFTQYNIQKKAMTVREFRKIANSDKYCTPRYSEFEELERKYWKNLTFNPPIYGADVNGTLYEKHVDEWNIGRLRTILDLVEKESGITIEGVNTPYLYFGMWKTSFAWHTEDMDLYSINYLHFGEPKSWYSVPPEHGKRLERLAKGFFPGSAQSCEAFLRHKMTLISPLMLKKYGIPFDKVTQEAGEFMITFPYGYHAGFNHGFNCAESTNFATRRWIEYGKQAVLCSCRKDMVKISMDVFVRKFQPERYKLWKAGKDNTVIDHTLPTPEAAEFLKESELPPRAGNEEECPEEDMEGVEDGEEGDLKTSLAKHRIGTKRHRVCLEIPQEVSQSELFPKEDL
Protocol: as §1, §2

HDACs = experiment: Histone deacetylases (HDACs) enzyme inhibition assay (Fluor de Lys); type: biochemical; conditions: in vitro
Protocol: The enzyme activity assay for HDAC was carried out using Fluor de Lys Fluorescent Assay System (BML-AK500, Enzo Life Sciences Inc, NY USA). The assay was performed as the manufactory guide in white 384-well plates. Time resolved fluorescence was measured on a Beckman Coulter DTX 880 plate reader with 250 ms delay, excitation at 360 nm, and emission at 530 nm.

LSD1 = molecular target: T4, LSD1 (Homo sapiens, UniProt O60341); experiment: LSD1 formaldehyde dehydrogenase coupled assay; type: biochemical; conditions: in vitro
T4 construct: LSD1 (full-length) was expressed as glutathione S-transferase (GST) fusions; made in house; host or cells: Escherichia coli BL-21
Protocol: LSD1 activity was measured in a formaldehyde dehydrogenase coupled assay. 15 μL enzyme mix containing 2.4 μg GST-LSD1 in 20 mM TRIS pH 8.5, 1 mM NAD, 1.5 mU formaldehyde dehydrogenase, 0.5 mM glutathione was added, followed by pin transfer of 100 nL compound. Then reactions were started by addition of 15 μL 75 μM H3(1-20)K4me2 peptide, and NADH fluorescence was measured on a Envision Microplate Imager (Perkin Elmer Life Sciences) with excitation at 345 nm and emission at 460 nm, integration for 400 ms at 10 min and 80 min after peptide addition.

KYSE150 cells = experiment: Cell viability / growth inhibition assay (CellTiter-Glo); type: cell-based, human; conditions: 48 hours; compound 1 at up to 100 μM
Source text: To examine the cellular activity of the compounds of the invention, oesophageal carcinoma cell line KYSE150 was used in a growth inhibition assay because KYSE150 cells have been reported to contain several copies of the GASC1 gene, and it has been reported that inhibition of GASC1 expression using short hairpin RNA causes a significant reduction of proliferation in KYSE150 cells. […] Without being bound by any theory, it is believed that this low activity in cells was possibly due to the poor cellular uptake of the zwitterion form in which it typically exists under physiological conditions. Therefore, its methyl ester prodrug 2 (FIG. 1a), called methylstat was tested.
To screen and validate the cellular toxicity of compounds, a cell viability assay was carried out using CellTiter-Glo luminescent cell viability assay kit (Promega, Madison USA). KYSE150 cells were seeded on blank-walled 384-well plates with KYSE medium at densities of 1,000 cells/well. The medium volume for each well was 40 μL. Cells were incubated at 37° C. in 5% CO2/95% air for 24 hours. The medium was removed from each well and replaced with 38 μL, of warmed fresh medium and 2 μL, compound solution in 2% DMSO/98% H2O. The compounds were added into medium at different concentrations with the final concentration of DMSO as 0.1%. After incubation at 37° C. with 5% CO2/95% air for another 48 hours, the plates were equilibrated to room temperature for 30 minutes. 40 μL, of CellTiter-Glo reagent (Promega, Madison USA) was added to each well and mixed for 2 minutes on an orbital shaker. The plate was incubated at room temperature for another 10 minutes to stabilize luminescent signal. The luminescence of each sample was measured in a plate-reading illuminometer (Beckman Coulter DTX 880) with parameters of 1-minute lag time and 0.1 second/well read time. The experiments were performed in triplicate and repeated on two separately initiated cultures.

In the case of O=C(O)/C=C/C(=O)N(O)CCCCNCc1ccc(COC(=O)Nc2cccc3ccccc23)cc1 [Compound 1], the IC50 [1] is reported as ~4.3 µM and 4.3 µM, the “inhibition of GASC1-mediated demethylation of H3K9me3 peptide (mass spectrum)” value (GST-fused GASC1(1-420)) is reported as “inhibited GASC1-mediated demethylation of H3K9me3 peptides” and the IC50 (JMJD2A) is reported as ~3.4 µM and 3.4 µM. The “inhibition of histone deacetylases (HDACs)” value (HDACs) was “did not significantly inhibit”, the “inhibition of FAD-dependent HDM LSD1” value (LSD1) was “did not significantly inhibit” and the “KYSE150 cell growth inhibition” value (KYSE150 cells) was “did not show significant growth inhibition”.
